According to patent US5317086A, “Cysteine proteinase inhibitors and inhibitor precursors” (The Regents of the University of California, priority 1992, dated 1994):
Non-standard residues stand in square brackets, D forms with d. Residues, ends and D or L forms follow the SMILES beside them. ξ: configuration not given here. *: point of attachment. MeOSuc = COC(=O)CCC(=O)*; ξF = NC(Cc1ccccc1)C(=O)O

Biological target: T1, papain (Carica papaya, UniProt P00784)
T1 construct: purchased Sigma
T1 sequence (P00784 134-345): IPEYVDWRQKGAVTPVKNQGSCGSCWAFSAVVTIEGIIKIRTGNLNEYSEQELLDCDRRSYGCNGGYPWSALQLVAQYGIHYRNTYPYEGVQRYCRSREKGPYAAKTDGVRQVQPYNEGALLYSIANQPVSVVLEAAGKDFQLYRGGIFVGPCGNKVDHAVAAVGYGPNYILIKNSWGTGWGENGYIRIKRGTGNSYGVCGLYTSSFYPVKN
Assay: Irreversible inhibition of papain (preincubation and 3000-fold dilution assay)
Format: biochemical
Details: control; 0.020 μM (666Ki) incubated with papain, diluted to (0.2 Ki); over 2.5 hr
Method: Papain (Sigma, 2x recrystallized) (1 mg/mL) was activated at 25° C. for 30 min prior to use in a solution of 0.1mM EDTA, 0.5 mM L-cysteine hydrochloride, and 0.06 mM mercaptoethanol, and was then diluted (20 μL to 1.0 mL) and stored at 4° C. for use in the assays. The cysteine and mercaptoethanol buffers were prepared fresh daily. The standard assay conditions consisted of 50 mM phosphate, 0.2 M NaCl, 5 mM EDTA, 2 mM dithiothreitol (DTT), 0.2% bovine serum albumin (BSA) and 20% CH3 CN, pH 6.5. However, these concentrations were obtained by dilution of a buffer of 100 mM phosphate, 0.4 M NaCl, 10 mM EDTA, 4 mM DTT at pH 6.5 to a final volume of 1 mL with the necessary amounts of CH3 CN and H2 O. The DTT and BSA were added fresh daily to the phosphate buffer. Kinetic measurements were performed by monitoring the fluorescence of 7-amino-4-methylcoumarin (MCA) [1 (excitation) 350 nm, 1 (emission) 460 nm] released upon hydrolysis of the substrate, CbzPheArgMCA. […] The Km was determined in duplicate runs by fitting rate vs. [S] using the program ENZFITTER. […]
The incomplete deactivation can be attributed to the increasing amounts of aldehyde present over time, which as a reversible inhibitor protects papain against alkylation. The dilution assay also provided evidence that the inhibition measured in the reversible assay was not due to trace amounts of aldehyde contamination. […]

COC(=O)CCC(=O)NC(Cc1ccccc1)C(=O)NCC=O (stereo not shown) [MeOSucPheGlyCHO] (MeOSuc-[ξF]-Gly-aldehyde)
loss of papain activity: 8%
